Molecular target: PI3K (phosphatidylinositol 3-kinase)
Assay: PI3K enzyme activity assay, dose response […]
Type: biochemical

SMILES	IC50
O=C1OC(O)C(Cc2ccc(O)cc2)=C1c1ccc(O)c(O)c1 (racemic) [compound 12, 8-hydroxyhelvafuranone]	9.8 µM
O=C1OCC(Cc2ccc(O)c(O)c2)=C1c1ccc(O)c(O)c1 [compound 11, eutypoid F]	1.7 µM

— paper PMC9864330, “Two New Alkaloids and a New Butenolide Derivative from the Beibu Gulf Sponge-Derived Fungus Penicillium sp. SCSIO 41413” (Marine Drugs, 2022)
